From patent US20220411419A1, “SMALL MOLECULE MODULATORS OF MHC-I” (RetroVirox, Inc., priority 2018, published 2022)

Tests used:
in vitro = conditions: human, uninfected SupT1 cells
[1] = tested on: downmodulation of MHC-I molecules expressed on the surface of HIV infected SupT1 cells; test: cells; conditions: for EC50: Human immunodeficiency virus 1, SUP-T1, read-out: EC50 for inhibition of MHC-I downmodulation utilizing the R1 parameter; for activity at 100 µM: Human immunodeficiency virus 1, SUP-T1, read-out: R1 @ 100 μM (R1 value for MHC-I downmodulation as % of the vehicle control)

Structure (SMILES) | CC50 at 48 h (in vitro) | EC50 [1] | CC50 (in vitro) | activity at 100 µM [1]
CC1(C)Cc2cccc(OCC(=O)Nc3ccc(C4CC4)cn3)c2O1 [Compound 71, N-(5-Cyclopropylpyridin-2-yl)-2-((2,2-dimethyl-2,3-dihydrobenzofuran-7-yl)oxy)acetamide] | > 125 µM | 0.15 µM |  | 
CC1(C)Cc2cccc(OCC(=O)N(c3ccccc3)c3nc4c(s3)CCCC4)c2O1 [Compound 94, 2-((2,2-Dimethyl-2,3-dihydrobenzofuran-7-yl)oxy)-N-phenyl-N-(4,5,6,7-tetrahydrobenzo[d]thiazol-2-yl)acetamide] | > 125 µM | 0.0015 µM |  | 
Cc1ccc(CN(C(=O)COc2cccc3c2OC(C)(C)C3)c2ccc(C)cn2)nc1 [Compound 49, 2-((2,2-Dimethyl-2,3-dihydrobenzofuran-7-yl)oxy)-N-(5-methylpyridin-2-yl)-N-((5-methylpyridin-2-yl)methyl)acetamide] | > 125 µM | 3.1 µM |  | 
CC1(C)Cc2cccc(OCC(=O)Nc3ccc(C#N)cn3)c2O1 [Compound 22, N-(5-Cyanopyridin-2-yl)-2-((2,2-dimethyl-2,3-dihydrobenzofuran-7-yl)oxy) acetamide] | > 100 µM | 25 µM |  | 
CC1(C)Cc2cccc(OCC(=O)N(c3ccccc3)c3nc4ccccc4s3)c2O1 [Compound 98, N-(Benzo[d]thiazol-2-yl)-2-((2,2-dimethyl-2,3-dihydrobenzofuran-7-yl)oxy)-N-phenylacetamide] | > 90 µM | 29 µM |  | 
Cc1csc(N(C(=O)COc2cccc3c2OC(C)(C)C3)c2ccncn2)n1 [Compound 96, 2-((2,2-Dimethyl-2,3-dihydrobenzofuran-7-yl)oxy)-N-(4-methylthiazol-2-yl)-N-(pyrimidin-4-yl)acetamide] | > 125 µM | > 25 µM | > 125 µM | 32%
Cc1csc(N(C(=O)COc2cccc3c2OC(C)(C)C3)c2ccc(F)cc2)n1 [Compound 58, 2-((2,2-Dimethyl-2,3-dihydrobenzofuran-7-yl)oxy)-N-(4-fluorophenyl)-N-(4-methylthiazol-2-yl)acetamide] | > 100 µM | 0.29 µM |  | 
Cc1ccc(NC(=O)COc2cccc3c2OC(C)(C)C3)nn1 [Compound 2, 2-((2,2-Dimethyl-2,3-dihydrobenzofuran-7-yl)oxy)-N-(6-methylpyridazin-3-yl)acetamide] | > 90 µM | 2.1 µM |  | 
C=Cc1ccc(NC(=O)COc2cccc3c2OC(C)(C)C3)nc1 [Compound 67, 2-((2,2-dimethyl-2,3-dihydrobenzofuran-7-yl)oxy)-N-(5-vinylpyridin-2-yl)acetamide] | > 125 µM | 2.2 µM |  | 
CC1(C)Cc2cccc(OCC(=O)Nc3nc4c(F)c(F)ccc4s3)c2O1 [Compound 6, N-(4,5-Difluorobenzo[d]thiazol-2-yl)-2-((2,2-dimethyl-2,3-dihydrobenzofuran-7-yl)oxy)acetamide] | 36 µM | 6.3 µM |  | 
CC1(C)Cc2cccc(OCC(=O)Nc3ccc(C(F)(F)F)nc3)c2O1 [Compound 12, 2-((2,2-Dimethyl-2,3-dihydrobenzofuran-7-yl)oxy)-N-(6-(trifluoromethyl)pyridin-3-yl)acetamide] | > 100 µM | > 25 µM | > 100 µM | 51%
CC1(C)Cc2cccc(OCC(=O)Nc3nc4c(s3)COCC4)c2O1 [Compound 175, N-(6,7-Dihydro-4H-pyrano[4,3-d]thiazol-2-yl)-2-((2,2-dimethyl-2,3-dihydrobenzofuran-7-yl)oxy)acetamide] | 10 µM | 1.2 µM |  | 
CC1(C)Cc2cccc(OCC(=O)Nc3cccc4cnccc34)c2O1 [Compound 14, 2-((2,2-Dimethyl-2,3-dihydrobenzofuran-7-yl)oxy)-N-(isoquinolin-5-yl) acetamide] | > 100 µM | > 25 µM | > 100 µM | 18%
COc1ccccc1OCC(=O)Nc1nc2c(F)cccc2s1 [Compound 192, N-(4-Fluorobenzo[d]thiazol-2-yl)-2-(2-methoxyphenoxy)acetamide] | > 10 µM | 1.8 µM |  | 
COc1c(OCC(=O)N(C)c2nc3c(s2)CCCC3)cccc1C1CC1 [Compound 120, 2-(3-Cyclopropyl-2-methoxyphenoxy)-N-methyl-N-(4,5,6,7-tetrahydrobenzo [d]thiazol-2-yl)acetamide] | > 125 µM | 4.8 µM |  | 
Cc1cc(NC(=O)COc2cccc3c2OC(C)(C)C3)ncc1Cl [Compound 18, N-(5-Chloro-4-methylpyridin-2-yl)-2-((2,2-dimethyl-2,3-dihydrobenzofuran-7-yl)oxy)acetamide] | > 125 µM | 18 µM |  | 
Cc1csc(N(C(=O)COc2cccc3c2OC(C)(C)C3)c2cnccn2)n1 [Compound 90] | > 100 µM | > 25 µM | > 100 µM | 31%
COc1ccccc1OCC(=O)N(C)c1nc2c(s1)CCCC2 [Compound 130, 2-(2-Methoxyphenoxy)-N-methyl-N-(4,5,6,7-tetrahydrobenzo[d]thiazol-2-yl) acetamide] | > 125 µM | 0.38 µM |  | 
CCCN(C(=O)COc1cccc2c1OC(C)(C)C2)c1nc2c(s1)CCCC2 [Compound 57, 2-((2,2-dimethyl-2,3-dihydrobenzofuran-7-yl)oxy)-N-propyl-N-(4,5,6,7-tetrahydrobenzo[d]thiazol-2-yl)acetamide] | > 125 µM | 0.002 µM |  | 
CN(C(=O)COc1cccc2c1OC(C)(C)C2)c1ccc(Br)cn1 [Compound 78, N-(5-Bromopyridin-2-yl)-2-((2,2-dimethyl-2,3-dihydrobenzofuran-7-yl)oxy)-N-methylacetamide] | > 125 µM | 17 µM |  | 
COc1ccccc1CCC(=O)Nc1nc2c(s1)CCCC2 [Compound 194, 3-(2-Methoxyphenyl)-N-(4,5,6,7-tetrahydrobenzo[d]thiazol-2-yl) propanamide] | 125 µM | 1.7 µM |  | 
CCc1ccc(NC(=O)COc2cccc3c2OC(C)(C)C3)nc1 [Compound 68, 2-((2,2-dimethyl-2,3-dihydrobenzofuran-7-yl)oxy)-N-(5-ethylpyridin-2-yl)acetamide] | > 125 µM | 0.54 µM |  | 
CC1(C)Cc2cccc(OCC(=O)Nc3ncnc4ccccc34)c2O1 [Compound 15, 2-((2,2-Dimethyl-2,3-dihydrobenzofuran-7-yl)oxy)-N-(quinazolin-4-yl) acetamide] | > 100 µM | > 25 µM | > 100 µM | 14%
Cc1ccnc(NC(=O)COc2cccc3c2OC(C)(C)C3)n1 [Compound 179, 2-((2,2-Dimethyl-2,3-dihydrobenzofuran-7-yl)oxy)-N-(4-methylpyrimidin-2-yl)acetamide] | > 100 µM | > 25 µM |  | 
CC(C)c1ccc(NC(=O)COc2cccc3c2OC(C)(C)C3)nc1 [Compound 70, 2-((2,2-Dimethyl-2,3-dihydrobenzofuran-7-yl)oxy)-N-(5-isopropylpyridin-2-yl)acetamide] | > 125 µM | 0.89 µM |  | 
Cc1csc(N(C(=O)COc2cccc3c2OC(C)(C)C3)c2ccccc2)n1 [Compound 180, 2-((2,2-Dimethyl-2,3-dihydrobenzofuran-7-yl)oxy)-N-(4-methylthiazol-2-yl)-N-phenylacetamide] | > 100 µM | 0.028 µM |  | 
